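1) Cells in 96-well plates. 2) Compound, 48 h, 5 concentrations. 3) Linear interpolation between surrounding doses. 4) Unreached endpoint = highest concentration. GI50 is the concentration that inhibits growth by half.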 Calls of active or inactive are those of the source. Cut-off read from the data, not from the text of the source: active = GI50 up to about 1.1 µM and inactive = higher.
Legend:
Experiment in all cases: DTP human tumour cell line panel, 48 h
MOLT-4 = test system: MOLT-4
EKVX = test system: EKVX
UACC-62 = test system: UACC-62
OVCAR-4 = test system: OVCAR-4
SK-OV-3 = test system: SK-OV-3
HL-60 = test system: HL-60
CCRF-CEM = test system: CCRF-CEM
TK-10 = test system: TK-10
SF-539 = test system: SF-539
SK-MEL-2 = test system: SK-MEL-2
RPMI-8226 = test system: RPMI-8226
NCI/ADR-RES = test system: NCI/ADR-RES
SNB-75 = test system: SNB-75
HCC 2998 = test system: HCC 2998
A498 = test system: A498
786-0 = test system: 786-0
NCI-H226 = test system: NCI-H226
M14 = test system: M14
HOP-92 = test system: HOP-92
SW-620 = test system: SW-620

SMILES | GI50 (MOLT-4) | GI50 (EKVX) | GI50 (UACC-62) | GI50 (OVCAR-4) | GI50 (SK-OV-3) | GI50 (HL-60) | GI50 (CCRF-CEM) | GI50 (TK-10) | GI50 (SF-539) | GI50 (SK-MEL-2) | GI50 (RPMI-8226) | GI50 (NCI/ADR-RES) | GI50 (SNB-75) | GI50 (HCC 2998) | GI50 (A498) | GI50 (786-0) | GI50 (NCI-H226) | GI50 (M14) | GI50 (HOP-92) | GI50 (SW-620)
O=[N+]([O-])c1ccc(Cl)cc1C1ON=C(c2ccccc2)N1C12CC3CC(CC(C3)C1)C2 (centres undefined) | > 100 µM (inactive) | > 100 µM (inactive) | > 100 µM (inactive) | > 100 µM (inactive) | > 100 µM (inactive) | 73.6 µM (inactive) | > 100 µM (inactive) | > 100 µM (inactive) | > 100 µM (inactive) | > 100 µM (inactive) | > 100 µM (inactive) | > 100 µM (inactive) | 0.0245 µM (active) | > 100 µM (inactive) | > 100 µM (inactive) | > 100 µM (inactive) | 64.3 µM (inactive) | > 100 µM (inactive) | > 100 µM (inactive) | 
O=S(=O)(c1ccc(/N=C2\NC(c3ccc(O)cc3)(c3ccccc3O)c3ccccc32)cc1)c1ccc(/N=C2/NC(c3ccc(O)cc3)(c3ccccc3O)c3ccccc32)cc1 (centres undefined) | 4.04 µM (inactive) | 5.96 µM (inactive) | 3.85 µM (inactive) | 2.87 µM (inactive) | 9.82 µM (inactive) | 1.02 µM (active) | 3.37 µM (inactive) | 13.8 µM (inactive) | 2.75 µM (inactive) | 3.73 µM (inactive) | 5.22 µM (inactive) | 24.7 µM (inactive) | 3.32 µM (inactive) | 4.63 µM (inactive) | 11.9 µM (inactive) | 3.02 µM (inactive) | 2.5 µM (inactive) | 3.87 µM (inactive) | 3.91 µM (inactive) | 
CCOC(=O)c1c(C)nc2c3ccccc3c(C#N)c(C)n12 | > 100 µM (inactive) | 6.65 µM (inactive) | > 100 µM (inactive) | 94 µM (inactive) | 21.2 µM (inactive) | > 100 µM (inactive) | > 100 µM (inactive) | > 100 µM (inactive) | > 100 µM (inactive) | > 100 µM (inactive) | > 100 µM (inactive) | 80.4 µM (inactive) | 20.6 µM (inactive) | > 100 µM (inactive) | > 100 µM (inactive) | > 10 µM (inactive) | > 100 µM (inactive) |  | 58.7 µM (inactive) | > 100 µM (inactive)
O=c1c2cc([N+](=O)[O-])ccc2n(Cc2ccccc2)n1Cc1ccccc1 | 11.8 µM (inactive) | 17.2 µM (inactive) | 8.63 µM (inactive) | 12.3 µM (inactive) | > 10 µM (inactive) | 10.3 µM (inactive) | 14.7 µM (inactive) | 22.8 µM (inactive) | 19.2 µM (inactive) | 12.6 µM (inactive) | 7.41 µM (inactive) | 11.2 µM (inactive) | 10.4 µM (inactive) | 17.9 µM (inactive) | 15.9 µM (inactive) | 21.7 µM (inactive) | 12.7 µM (inactive) | 13.1 µM (inactive) | 14.2 µM (inactive) | 17.4 µM (inactive)
COc1ccc(C2CC(c3c(C)nn(-c4ccccc4)c3-c3ccc(C)cc3O)=NN2c2ccccc2)cc1 (centres undefined) | 4.65 µM (inactive) | > 33.5 µM (inactive) | 23 µM (inactive) | > 45.7 µM (inactive) | > 100 µM (inactive) | 9.27 µM (inactive) | 6.05 µM (inactive) | > 100 µM (inactive) | > 78.5 µM (inactive) | 14.1 µM (inactive) | 4.81 µM (inactive) | 21.9 µM (inactive) | 5.04 µM (inactive) | 12 µM (inactive) | > 100 µM (inactive) | > 100 µM (inactive) | > 24 µM (inactive) | 14.2 µM (inactive) | > 100 µM (inactive) | 20.5 µM (inactive)
CC(C)=C[C@H]1C[C@H](C)[C@H]2CC[C@H](C)c3c2c1c(C)c1ncoc31 | 14.1 µM (inactive) | 15.9 µM (inactive) | 18.3 µM (inactive) | 19.2 µM (inactive) |  | 11.5 µM (inactive) | 17.7 µM (inactive) | 17.4 µM (inactive) | 16.4 µM (inactive) | 14.9 µM (inactive) | 12.2 µM (inactive) | 17 µM (inactive) | 18.8 µM (inactive) | 20 µM (inactive) | 19.9 µM (inactive) | 18.5 µM (inactive) | 16.8 µM (inactive) | 15 µM (inactive) | 16.6 µM (inactive) | 15.3 µM (inactive)
CC(=O)OCC1OC(N2C(c3ccccc3)=CC(c3ccco3)C(C#N)=C2S)C(OC(C)=O)C(OC(C)=O)C1OC(C)=O (centres undefined) | > 22.2 µM (inactive) | > 29 µM (inactive) | 13.6 µM (inactive) | 3.33 µM (inactive) | 21.7 µM (inactive) | 10.4 µM (inactive) | 12.6 µM (inactive) | 18.7 µM (inactive) | 2.06 µM (inactive) | 28.8 µM (inactive) | 9.1 µM (inactive) | 4.78 µM (inactive) | 2.55 µM (inactive) | 14.8 µM (inactive) | 15.2 µM (inactive) | 2.03 µM (inactive) | 6.71 µM (inactive) | 4.65 µM (inactive) | 6.22 µM (inactive) | 1.36 µM (inactive)
CCCCCCc1cc2cc(C(=O)Nc3ccccc3)c(=N)oc2cc1O | 2.16 µM (inactive) | 3.29 µM (inactive) | 2.26 µM (inactive) | 4.13 µM (inactive) | 3.34 µM (inactive) | 4.08 µM (inactive) | 3.47 µM (inactive) | 6.78 µM (inactive) | 4.49 µM (inactive) | 2.45 µM (inactive) | 4.08 µM (inactive) | 3.27 µM (inactive) | > 23 µM (inactive) | 3.46 µM (inactive) | 26.2 µM (inactive) | 3.21 µM (inactive) | > 25.6 µM (inactive) | 3.6 µM (inactive) | 3.25 µM (inactive) | 3.97 µM (inactive)
Nc1nc(NCc2ccccc2)cc(NCc2ccccc2)n1 | 7.18 µM (inactive) | 9.93 µM (inactive) | 3.67 µM (inactive) | 9.89 µM (inactive) | 9.08 µM (inactive) | 37.8 µM (inactive) | 4.24 µM (inactive) | 8.02 µM (inactive) | 3.45 µM (inactive) | 8.81 µM (inactive) | 3.06 µM (inactive) | 3.23 µM (inactive) | 3.23 µM (inactive) | 8.95 µM (inactive) | 0.668 µM (active) | 4.92 µM (inactive) | 7.5 µM (inactive) | 10.5 µM (inactive) | 5.38 µM (inactive) | 5.21 µM (inactive)
Cc1c(C#N)c2ccccc2c2nc3ccccc3n12 | 47.5 µM (inactive) | > 100 µM (inactive) | > 100 µM (inactive) | 38.4 µM (inactive) | 98.9 µM (inactive) | > 100 µM (inactive) | > 100 µM (inactive) | > 100 µM (inactive) | 39 µM (inactive) | > 100 µM (inactive) | > 100 µM (inactive) | > 100 µM (inactive) | 73.3 µM (inactive) | 64.3 µM (inactive) | > 100 µM (inactive) | 37.9 µM (inactive) | > 100 µM (inactive) |  | > 100 µM (inactive) | 81.3 µM (inactive)
c1ccc2c(c1)Nc1ccccc1[P+]21c2ccccc2Nc2ccccc21 | 0.0525 µM (active) | 0.312 µM (active) | 0.143 µM (active) | 0.447 µM (active) | 0.267 µM (active) | 0.251 µM (active) | 0.158 µM (active) | 0.581 µM (active) | 0.156 µM (active) | 0.199 µM (active) | 0.0314 µM (active) | 69.2 µM (inactive) | 0.0466 µM (active) | 0.313 µM (active) | 0.318 µM (active) | 0.401 µM (active) | 0.0964 µM (active) | 0.351 µM (active) | 0.123 µM (active) | 0.279 µM (active)
OC1c2ccccc2CCC1C(O)(C(F)(F)F)C(F)(F)F (centres undefined) | > 100 µM (inactive) | > 100 µM (inactive) | > 100 µM (inactive) | > 100 µM (inactive) | > 100 µM (inactive) | > 100 µM (inactive) | > 100 µM (inactive) | > 100 µM (inactive) | > 100 µM (inactive) | > 100 µM (inactive) | > 100 µM (inactive) | > 100 µM (inactive) | 45.8 µM (inactive) | > 100 µM (inactive) | > 100 µM (inactive) | > 100 µM (inactive) | 38.4 µM (inactive) | > 100 µM (inactive) | 35.1 µM (inactive) | > 100 µM (inactive)
COc1cc([C@@H]2c3cc4c(cc3[C@@H](OC3OC5CO[C@@H](c6cccs6)OC5C(O)C3O)[C@H]3COC(=O)[C@H]23)OCO4)cc(OC)c1O (some centres undefined) |  | 1.3 µM (inactive) | 0.183 µM (active) | 5.12 µM (inactive) | 0.395 µM (active) | 0.0521 µM (active) | 0.046 µM (active) | 1.75 µM (inactive) | 0.205 µM (active) | 1.09 µM (active) | 0.164 µM (active) | 23.4 µM (inactive) | 0.502 µM (active) | 0.671 µM (active) | 0.394 µM (active) | 0.285 µM (active) | 0.32 µM (active) | 0.594 µM (active) | 0.132 µM (active) | 0.24 µM (active)
C=CCOc1ccc(C2(O)c3ccccc3C3=NCCCN32)cc1 (centres undefined) | 33.2 µM (inactive) | 80.5 µM (inactive) | 25.7 µM (inactive) | > 71 µM (inactive) | > 95.9 µM (inactive) | 35.7 µM (inactive) | 38 µM (inactive) | > 100 µM (inactive) | 56 µM (inactive) | 20.3 µM (inactive) | 26.4 µM (inactive) | > 100 µM (inactive) | 32 µM (inactive) | 24.6 µM (inactive) | > 100 µM (inactive) | 38.3 µM (inactive) | > 77.1 µM (inactive) | 18.1 µM (inactive) | 43.6 µM (inactive) | 44 µM (inactive)
